One test deals with T1, Axl (Homo sapiens, UniProt P30530).
T1 construct: purchased Life Technologies
T1 sequence (P30530 26-894): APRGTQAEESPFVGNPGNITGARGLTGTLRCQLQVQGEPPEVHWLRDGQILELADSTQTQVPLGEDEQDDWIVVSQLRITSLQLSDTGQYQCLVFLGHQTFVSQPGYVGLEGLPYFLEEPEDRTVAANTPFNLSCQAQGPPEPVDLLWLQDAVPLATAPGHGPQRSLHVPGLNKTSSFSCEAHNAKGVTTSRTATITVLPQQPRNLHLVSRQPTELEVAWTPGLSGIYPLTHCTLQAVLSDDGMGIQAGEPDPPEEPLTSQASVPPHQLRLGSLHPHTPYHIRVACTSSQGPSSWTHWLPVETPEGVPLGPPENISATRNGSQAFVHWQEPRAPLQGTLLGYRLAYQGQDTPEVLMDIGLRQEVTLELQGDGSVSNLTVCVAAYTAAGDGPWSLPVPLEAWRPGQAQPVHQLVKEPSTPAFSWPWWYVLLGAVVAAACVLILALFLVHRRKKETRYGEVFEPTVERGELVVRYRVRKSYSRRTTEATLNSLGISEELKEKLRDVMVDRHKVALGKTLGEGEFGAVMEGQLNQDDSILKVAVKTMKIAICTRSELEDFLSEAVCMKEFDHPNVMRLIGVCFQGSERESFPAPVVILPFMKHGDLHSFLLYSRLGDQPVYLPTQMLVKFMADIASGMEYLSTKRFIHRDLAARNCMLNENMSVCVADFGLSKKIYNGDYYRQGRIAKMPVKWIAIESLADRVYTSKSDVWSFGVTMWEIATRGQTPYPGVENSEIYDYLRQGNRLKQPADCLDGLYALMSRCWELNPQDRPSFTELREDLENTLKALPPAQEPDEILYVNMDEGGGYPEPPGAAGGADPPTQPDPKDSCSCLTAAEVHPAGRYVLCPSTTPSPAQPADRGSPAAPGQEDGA
As to the kind of experiment: LanthaScreen Eu kinase binding assay, Axl. The following applies: Tracer 236. On the technique in general: In TR-FRET formats the signal depends on donor and acceptor labels being close together.

A further test has as its target T2, TYRO3 (Homo sapiens, UniProt Q06418).
T2 construct: purchased Life Technologies
T2 sequence (Q06418 41-890): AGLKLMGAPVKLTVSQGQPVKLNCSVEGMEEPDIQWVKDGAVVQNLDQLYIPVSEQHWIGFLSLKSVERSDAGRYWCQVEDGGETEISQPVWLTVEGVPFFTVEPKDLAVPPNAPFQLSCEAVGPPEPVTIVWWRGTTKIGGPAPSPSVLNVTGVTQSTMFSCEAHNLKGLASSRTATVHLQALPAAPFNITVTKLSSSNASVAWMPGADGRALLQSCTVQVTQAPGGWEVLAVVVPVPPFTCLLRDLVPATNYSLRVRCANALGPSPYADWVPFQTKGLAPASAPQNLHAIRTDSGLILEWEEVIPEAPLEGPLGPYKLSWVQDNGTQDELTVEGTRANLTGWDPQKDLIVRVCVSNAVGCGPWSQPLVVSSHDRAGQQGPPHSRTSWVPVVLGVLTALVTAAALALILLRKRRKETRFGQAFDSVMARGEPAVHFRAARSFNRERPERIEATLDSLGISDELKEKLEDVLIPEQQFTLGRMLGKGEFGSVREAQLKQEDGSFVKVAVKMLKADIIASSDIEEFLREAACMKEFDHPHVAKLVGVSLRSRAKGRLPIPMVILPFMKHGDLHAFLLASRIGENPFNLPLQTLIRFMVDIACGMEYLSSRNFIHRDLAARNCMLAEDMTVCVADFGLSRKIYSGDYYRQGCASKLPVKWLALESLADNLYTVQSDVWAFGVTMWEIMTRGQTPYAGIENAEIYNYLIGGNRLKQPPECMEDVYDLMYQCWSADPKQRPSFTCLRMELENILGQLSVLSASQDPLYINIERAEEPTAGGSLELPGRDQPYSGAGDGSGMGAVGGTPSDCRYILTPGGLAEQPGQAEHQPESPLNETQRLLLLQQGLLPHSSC
As to the kind of experiment: LanthaScreen Eu kinase binding assay, TYRO3. Conditions: Tracer 236.

Take `COc1cc2c(Oc3ccc(NC(=O)c4nn(-c5cnc(N)nc5)cc4OCC(F)(F)F)nc3)ccnc2cc1OC(C)C` [Compound 257]: the Kd at Axl and on TYRO3 was less than 100 nM each time.

Turning to `COc1cc2nccc(Oc3ccc(NC(=O)c4nn(-c5ccc(F)cc5F)cc4OCC(F)(F)F)nc3)c2cc1OC` [Compound 268], the equilibrium dissociation constant (Kd) at Axl and on TYRO3 was less than 100 nM in each case.

In the case of `COc1cc2nccc(Oc3ccc(NC(=O)c4nn(-c5cnccc5C(F)(F)F)cc4OCC4CC4)nc3)c2cc1OC` [Compound 247], the Kd on Axl and on TYRO3 was less than 100 nM each time.

For `CCOc1cn(-c2nccnc2C(C)(O)CO)nc1C(=O)Nc1ccc(Oc2ccnc3cc(OC)c(OC)cc23)cc1F` (stereo not shown) [Compound 229], the equilibrium dissociation constant (Kd) on Axl and on TYRO3 was less than 100 nM in each case.

Consider `CCOc1cnn(C)c1C(=O)Nc1ccc(Oc2ccnc3cc(OC)c(OC)cc23)cn1` [Compound 30], for which the dissociation constant (Kd) on Axl and on TYRO3 was no less than 1000 nM in each case.

As for `COc1cc2nccc(Oc3ccc(NC(=O)c4nn(-c5cccnc5)cc4OCC4CC4)nc3)c2cc1OC` [Compound 255], the equilibrium dissociation constant (Kd) on Axl and at TYRO3 was less than 100 nM in each case.

With `CCOc1cn(C)nc1C(=O)Nc1ccc(Oc2ccnc3cc(OC)c(OC)cc23)cn1` [Compound 29], the Kd on Axl and on TYRO3 was 100 to 1000 nM each time.

For the compound `CCOc1cn(CCn2cccn2)nc1C(=O)Nc1ccc(Oc2ccnc3cc(OC)c(OC)cc23)cn1` [Compound 37], the Kd is less than 100 nM on Axl and 100 to 1000 nM at TYRO3.

In the case of `CCOc1cn(-c2cnccc2CCN(C)C)nc1C(=O)Nc1ccc(Oc2ccnc3cc(OC)c(OC)cc23)cn1` [Compound 65], the Kd on Axl and on TYRO3 was less than 100 nM in each case.

Take `CCOc1sc(-c2cccnc2)nc1C(=O)Nc1ccc(Oc2ccnc3cc(OC)c(OC)cc23)cn1` [Compound 45]: the equilibrium dissociation constant (Kd) at Axl and on TYRO3 was less than 100 nM throughout.

As to `COc1cc2nccc(Oc3ccc(NC(=O)c4nn(-c5ccc(F)c(C(C)=O)c5)cc4OCC4CC4)nc3)c2cc1OC` [Compound 274], the equilibrium dissociation constant (Kd) at Axl and on TYRO3 was less than 100 nM each time.

`CCOc1cn(CC)nc1C(=O)Nc1ccc(Oc2ccnc3cc(OC)c(OC)cc23)cn1` [Compound 27]: the Kd on Axl and on TYRO3 was less than 100 nM throughout.

As to `CCOc1cn(-c2cnccc2C(C)(O)CO)nc1C(=O)Nc1ccc(Oc2ccnc3cc(OC)c(OC)cc23)cc1F` (stereo not shown) [Compound 227], the Kd at Axl and at TYRO3 was less than 100 nM throughout.

For the compound `CCOc1cn(Cc2cnccn2)nc1C(=O)Nc1ccc(Oc2ccnc3cc(OC)c(OC)cc23)cc1F` [Compound 215], the Kd at Axl and on TYRO3 was less than 100 nM throughout.

With `CCOc1cn(-c2ccc(N(C)C)cc2Cl)nc1C(=O)Nc1ccc(Oc2ccnc3cc(OC)c(OC)cc23)cn1` [Compound 31], the values for the Kd at Axl and at TYRO3 were less than 100 nM and no less than 1000 nM, respectively.

Turning to `CCOc1cn(CC(C)=O)nc1C(=O)Nc1ccc(Oc2ccnc3cc(OC)c(OC)cc23)cn1` [Compound 66], the Kd was less than 100 nM on Axl and 100 to 1000 nM at TYRO3.

Consider `COc1cc2nccc(Oc3ccc(NC(=O)c4nn(-c5cnc(N)nc5)cc4OCC4CCC4)nc3)c2cc1OC` [Compound 262], for which the Kd on Axl and at TYRO3 was less than 100 nM each time.

With `CCOc1cnn(-c2ccco2)c1C(=O)Nc1ccc(Oc2ccnc3cc(OC)c(OC)cc23)cn1` [Compound 58], the dissociation constant (Kd) on Axl was less than 100 nM; on TYRO3, 100 to 1000 nM.

Turning to `COc1cc2nccc(Oc3ccc(NC(=O)c4nn(-c5cnc(N)cn5)cc4OCC(F)(F)F)c(F)c3)c2cc1OC` [Compound 252], the dissociation constant Kd at Axl and on TYRO3 was less than 100 nM each time.

As to `CCOc1cn(CCOC)nc1C(=O)Nc1ccc(Oc2ccnc3cc(OC)c(OC)cc23)cn1` [Compound 64], the Kd on Axl and on TYRO3 was less than 100 nM each time.

Consider `CCOc1cnn(C2CCCN(C)C2)c1C(=O)Nc1ccc(Oc2ccnc3cc(OC)c(OC)cc23)cc1F` (stereo not shown) [Compound 213], for which the Kd on Axl and at TYRO3 was no less than 1000 nM each time.

As for `CCOc1cn(-c2cnc(N)nc2)nc1C(=O)Nc1ccc(Oc2ccnc3cc(OC(C)C)c(OC)cc23)cc1F` [Compound 230], the dissociation constant Kd on Axl is less than 100 nM; on TYRO3, no less than 1000 nM.

For the compound `CCOc1oc(-c2cccnc2)nc1C(=O)Nc1ccc(Oc2ccnc3cc(OC)c(OC)cc23)cn1` [Compound 44], the Kd on Axl is less than 100 nM; at TYRO3, no less than 1000 nM.

As to `CCOc1cn(-c2ccsc2)nc1C(=O)Nc1ccc(Oc2ccnc3cc(OC)c(OC)cc23)cn1` [Compound 18], the Kd at Axl and at TYRO3 was less than 100 nM each time.

Consider `CCOc1cn(C2CCN(C)C2)nc1C(=O)Nc1ccc(Oc2ccnc3cc(OC)c(OC)cc23)cc1F` (stereo not shown) [Compound 212], for which the Kd on Axl and on TYRO3 was 100 to 1000 nM throughout.

For the compound `CCOc1cn(-c2cnsc2)nc1C(=O)Nc1ccc(Oc2ccnc3cc(OC)c(OC)cc23)cn1` [Compound 39], the Kd at Axl and at TYRO3 was less than 100 nM in each case.

`COc1cc2nccc(Oc3ccc(NC(=O)c4nn(-c5ccc(F)cc5Cl)cc4OCC4CC4)nc3)c2cc1OC` [Compound 263]: the Kd on Axl and at TYRO3 was less than 100 nM each time.

With `CCOc1cn(-c2cccnc2C)nc1C(=O)Nc1ccc(Oc2ccnc3cc(OC)c(OC)cc23)cn1` [Compound 23], the Kd on Axl and on TYRO3 was less than 100 nM throughout.

For the compound `CCOc1cn(-c2cnc(N)nc2)nc1C(=O)Nc1ccc(Oc2ccnc3cc(OC)c(OC(F)(F)F)cc23)cn1` [Compound 241], the equilibrium dissociation constant (Kd) at Axl is less than 100 nM; at TYRO3, no less than 1000 nM.

Take `CCOc1cn(-c2ccc(C#N)cn2)nc1C(=O)Nc1ccc(Oc2ccnc3cc(OC)c(OC)cc23)cn1` [Compound 43]: the equilibrium dissociation constant (Kd) at Axl and at TYRO3 was no less than 1000 nM throughout.

With `COc1cc2nccc(Oc3ccc(NC(=O)c4nn(-c5ccc(F)cc5C)cc4OCC4CC4)nc3)c2cc1OC` [Compound 258], the Kd at Axl and at TYRO3 was less than 100 nM throughout.

As to `CCOc1cn(-c2ccnnc2)nc1C(=O)Nc1ccc(Oc2ccnc3cc(OC)c(OC)cc23)cn1` [Compound 40], the Kd at Axl is less than 100 nM; at TYRO3, no less than 1000 nM.

With `COc1cc2nccc(Oc3ccc(NC(=O)c4nn(-c5cnc(N)nc5)cc4OCC4CC4)nc3)c2cc1OC` [Compound 240], the Kd on Axl and on TYRO3 was less than 100 nM in each case.

As for `COc1cc2nccc(Oc3ccc(NC(=O)c4nn(-c5ccc(F)cc5C5CCCC5)cc4OCC4CC4)nc3)c2cc1OC` [Compound 270], the Kd on Axl and at TYRO3 was 100 to 1000 nM throughout.

Take `COc1cc2nccc(Oc3ccc(NC(=O)c4nn(-c5cnc(N)cn5)cc4OCC(F)(F)F)nc3)c2cc1OC` [Compound 248]: the Kd on Axl and at TYRO3 was less than 100 nM in each case.

As for `COc1cc2nccc(Oc3ccc(NC(=O)c4nn(-c5cnc(N)cn5)cc4OCC4CC4)nc3)c2cc1OC` [Compound 249], the Kd on Axl and on TYRO3 was less than 100 nM each time.

For `COc1cc2nccc(Oc3ccc(NC(=O)c4nn(-c5cccnc5)cc4OCC4CC4)nc3)c2cc1OC(F)(F)F` [Compound 239], the Kd on Axl and on TYRO3 was less than 100 nM throughout.

As for `CCOc1cn(-c2cnccn2)nc1C(=O)Nc1ccc(Oc2ccnc3cc(OC)c(OC)cc23)cn1` [Compound 36], the Kd at Axl and at TYRO3 was less than 100 nM throughout.

In general, Kd refers to the constant that tells how readily two partners part at equilibrium.

The record behind these values is US10934274B2, “Quinoline derivatives as TAM RTK inhibitors” (Qurient Co., Ltd., priority 2015, dated 2021).
